This is an account of results in patent publication US11192891B2, “Diazaspiro ROCK inhibitors” (BRISTOL-MYERS SQUIBB COMPANY, priority 2017, dated 2021).

Each structure is given as a SMILES string. Where a name gives a salt, the structure may show the parent alone.

Sequence of ROCK2 (O75116 whole entry, species assumed): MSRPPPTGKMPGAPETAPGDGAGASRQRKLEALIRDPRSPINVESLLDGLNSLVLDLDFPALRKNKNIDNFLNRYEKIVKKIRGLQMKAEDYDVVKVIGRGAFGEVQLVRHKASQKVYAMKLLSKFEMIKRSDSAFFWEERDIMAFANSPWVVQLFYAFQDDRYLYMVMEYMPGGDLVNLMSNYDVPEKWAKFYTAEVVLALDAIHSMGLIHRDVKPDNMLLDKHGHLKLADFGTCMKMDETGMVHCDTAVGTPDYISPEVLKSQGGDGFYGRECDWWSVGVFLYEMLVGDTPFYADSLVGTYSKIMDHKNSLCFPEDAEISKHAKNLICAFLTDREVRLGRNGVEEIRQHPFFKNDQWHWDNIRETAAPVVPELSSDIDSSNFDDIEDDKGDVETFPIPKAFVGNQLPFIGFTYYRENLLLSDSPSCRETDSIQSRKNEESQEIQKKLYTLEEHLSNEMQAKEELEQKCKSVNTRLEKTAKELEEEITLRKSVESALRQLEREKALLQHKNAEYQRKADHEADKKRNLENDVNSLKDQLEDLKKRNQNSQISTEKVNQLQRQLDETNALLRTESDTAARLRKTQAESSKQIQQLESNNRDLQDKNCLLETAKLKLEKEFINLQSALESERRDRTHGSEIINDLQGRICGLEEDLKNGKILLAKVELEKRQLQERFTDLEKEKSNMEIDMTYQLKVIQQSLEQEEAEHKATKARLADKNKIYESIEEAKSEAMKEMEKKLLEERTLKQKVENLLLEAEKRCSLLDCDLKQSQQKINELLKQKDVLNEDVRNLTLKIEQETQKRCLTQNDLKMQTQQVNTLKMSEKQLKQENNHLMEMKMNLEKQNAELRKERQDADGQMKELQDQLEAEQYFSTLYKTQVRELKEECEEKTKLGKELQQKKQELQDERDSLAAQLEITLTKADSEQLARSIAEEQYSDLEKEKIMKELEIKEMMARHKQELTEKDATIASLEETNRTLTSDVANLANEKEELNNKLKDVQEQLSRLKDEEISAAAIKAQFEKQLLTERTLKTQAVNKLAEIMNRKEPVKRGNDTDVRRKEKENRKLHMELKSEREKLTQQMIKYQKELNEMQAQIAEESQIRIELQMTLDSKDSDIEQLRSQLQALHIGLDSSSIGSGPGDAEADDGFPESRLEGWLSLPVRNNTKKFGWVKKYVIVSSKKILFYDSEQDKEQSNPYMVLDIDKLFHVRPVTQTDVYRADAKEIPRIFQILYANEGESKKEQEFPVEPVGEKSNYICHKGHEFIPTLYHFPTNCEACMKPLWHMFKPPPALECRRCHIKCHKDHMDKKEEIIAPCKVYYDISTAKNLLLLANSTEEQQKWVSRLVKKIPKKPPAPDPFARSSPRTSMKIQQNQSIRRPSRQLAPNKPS

The first assay has as its system Dahl salt-sensitive rats.
Experiment: not given
Conditions: cited from earlier work.
For the compound `C[C@@H](N)[C@H]1CC[C@H](C(=O)Nc2ccncc2)CC1` [Example Y-27632], the “ventricular hypertrophy, fibrosis and function” value is “improve ventricular hypertrophy, fibrosis and function”.

In a further assay the test system is rat stroke model.
Experiment: not given
Particulars: cited from earlier work.
For `O=S(=O)(c1cccc2cnccc12)N1CCCNCC1` [fasudil], the “infarct size and neurologic deficit” value is “reduce both the infarct size and neurologic deficit”.

The subject of the next assay is IL-1 beta-induced coronary stenosis.
Experiment: not given
Particulars: long term treatment, porcine model; cited from earlier work.
In the case of `O=S(=O)(c1cccc2cnccc12)N1CCCNCC1` [fasudil], the coronary constrictive remodeling entry is “promote a regression of coronary constrictive remodeling” and the coronary stenosis entry is reported as “progressively reduce coronary stenosis”.

A further assay relates to neointimal formation.
Experiment: not given
Particulars: rats; cited from earlier work.
As to `C[C@@H](N)[C@H]1CC[C@H](C(=O)Nc2ccncc2)CC1` [Example Y-27632], the neointimal formation entry is listed as “inhibited neointimal formation”.

The next assay deals with rat models of hypertension.
Experiment: not given
Conditions: control rats; cited from earlier work.
Consider `C[C@@H](N)[C@H]1CC[C@H](C(=O)Nc2ccncc2)CC1` [Example Y-27632], for which the “effect on blood pressure in control rats” value is listed as “only a minor effect on blood pressure”.

The same assay, now with this note: spontaneously hypertensive, renal hypertensive and deoxycortisone acetate salt hypertensive rat models; cited from earlier work.
Consider `C[C@@H](N)[C@H]1CC[C@H](C(=O)Nc2ccncc2)CC1` [Example Y-27632], for which the “effect on blood pressure in hypertensive rats” value was “significantly decrease blood pressure”.

The next assay concerns the target ROCK2 (Homo sapiens, UniProt O75116). Nature of the assay: ROCK kinase inhibition assay, FITC peptide substrate, LABCHIP 3000 readout. Format: biochemical. Particulars: 5 μM ATP, 1.5 μM peptide substrate. In short, it runs like this: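 Rho kinase variants started the reaction with compound present (DMSO <2%); after incubation, EDTA stop, and phosphorylated and non-phosphorylated peptide separated by microfluidic electrophoresis. Dose-response format, inhibition calculated at each concentration.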
One may read the IC50 as the midpoint of a concentration-inhibition curve. A high value points to weaker potency in that assay. `COc1cc(N2CCC3(CCN(C(=O)c4ccc(N5CCN(Cc6ccc(-c7ccccc7)cc6)CC5)cc4)CC3)C2=O)ccc1-c1cn[nH]c1` [Example 225, 8-{4-[4-({[1,1′-biphenyl]-4-yl}methyl)piperazin-1-yl]benzoyl}-2-[3-methoxy-4-(1H-pyrazol-4-yl)phenyl]-2,8-diazaspiro[4.5]decan-1-one] displayed a 50% inhibitory concentration (IC50) of 4.5 nM.

For `COc1cc(N2CCC3(CCN(C(=O)c4ccc(N5CCN(C6CCCCC6)CC5)cc4)CC3)C2=O)ccc1-c1cn[nH]c1` [Example 226, 8-[4-(4-cyclohexylpiperazin-1-yl)benzoyl]-2-[3-methoxy-4-(1H-pyrazol-4-yl)phenyl]-2,8-diazaspiro[4.5]decan-1-one], the IC50 was found to be 0.7 nM.

On to `COc1cc(N2CCC3(CCN(C(=O)c4ccc(N5CCN(Cc6ccc(Cl)cc6)CC5)cc4)CC3)C2=O)ccc1-c1cn[nH]c1` [Example 227, 8-(4-{4-[(4-chlorophenyl)methyl]piperazin-1-yl}benzoyl)-2-[3-methoxy-4-(1H-pyrazol-4-yl)phenyl]-2,8-diazaspiro[4.5]decan-1-one], for which half-maximal inhibition (IC50) required 2.2 nM.

`COc1cc(N2CCC3(CCN(C(=O)c4ccc(N5CCN(Cc6cccn6C)CC5)cc4)CC3)C2=O)ccc1-c1cn[nH]c1` [Example 228, 2-[3-methoxy-4-(1H-pyrazol-4-yl)phenyl]-8-(4-{4-[(1-methyl-1H-pyrrol-2-yl)methyl]piperazin-1-yl}benzoyl)-2,8-diazaspiro[4.5]decan-1-one] returned a half-inhibitory concentration (IC50) of 0.9 nM.

In the case of `COc1cc(N2CCC3(CCN(C(=O)c4ccc(N5CCN(Cc6nc7ccccc7s6)CC5)cc4)CC3)C2=O)ccc1-c1cn[nH]c1` [Example 229, 8-(4-{4-[(1,3-benzothiazol-2-yl)methyl]piperazin-1-yl}benzoyl)-2-[3-methoxy-4-(1H-pyrazol-4-yl)phenyl]-2,8-diazaspiro[4.5]decan-1-one], the IC50 stood at 1.9 nM.

The compound `COc1cc(N2CCC3(CCN(C(=O)c4ccc(N5CCN(CC6CCCC6)CC5)cc4)CC3)C2=O)ccc1-c1cn[nH]c1` [Example 230, 8-{4-[4-(cyclopentylmethyl)piperazin-1-yl]benzoyl}-2-[3-methoxy-4-(1H-pyrazol-4-yl)phenyl]-2,8-diazaspiro[4.5]decan-1-one] showed an IC50 of 2.2 nM.

In turn, `COc1cc(N2CCC3(CCN(C(=O)c4ccc(N5CCN(CCC(C)(C)C)CC5)cc4)CC3)C2=O)ccc1-c1cn[nH]c1` [Example 231, 8-{4-[4-(3,3-dimethylbutyl)piperazin-1-yl]benzoyl}-2-[3-methoxy-4-(1H-pyrazol-4-yl)phenyl]-2,8-diazaspiro[4.5]decan-1-one] showed an IC50 of 2.2 nM.

In turn, `COc1cc(N2CCC3(CCN(C(=O)c4ccc(N5CCN(C(C)CN(C)C)CC5)cc4)CC3)C2=O)ccc1-c1cn[nH]c1` (stereo not drawn) [Example 232, 8-(4-{4-[1-(dimethylamino)propan-2-yl]piperazin-1-yl}benzoyl)-2-[3-methoxy-4-(1H-pyrazol-4-yl)phenyl]-2,8-diazaspiro[4.5]decan-1-one] yielded a concentration for half-maximal inhibition (IC50) of 3.1 nM.

Regarding `COc1cc(N2CCC3(CCN(C(=O)c4ccc(N5CCN(C(C)C)CC5)cc4)CC3)C2=O)ccc1-c1cn[nH]c1` [Example 233, 2-[3-methoxy-4-(1H-pyrazol-4-yl)phenyl]-8-{4-[4-(propan-2-yl)piperazin-1-yl]benzoyl}-2,8-diazaspiro[4.5]decan-1-one], 0.2 nM corresponded to half-maximal inhibition (IC50).

`COc1cc(N2CCC3(CCN(C(=O)c4ccc(N5CCN(Cc6ccc(C(F)(F)F)cc6)CC5)cc4)CC3)C2=O)ccc1-c1cn[nH]c1` [Example 234, 2-[3-methoxy-4-(1H-pyrazol-4-yl)phenyl]-8-[4-(4-{[4-(trifluoromethyl)phenyl]methyl}piperazin-1-yl)benzoyl]-2,8-diazaspiro[4.5]decan-1-one] gave a half-maximal inhibitory concentration (IC50) of 4.1 nM.

`COc1cc(N2CCC3(CCN(C(=O)c4ccc(N5CCN(Cc6cccc(NS(C)(=O)=O)c6)CC5)cc4)CC3)C2=O)ccc1-c1cn[nH]c1` [Example 235, N-(3-{[4-(4-{2-[3-methoxy-4-(1H-pyrazol-4-yl)phenyl]-1-oxo-2,8-diazaspiro[4.5]decane-8-carbonyl}phenyl)piperazin-1-yl]methyl}phenyl)methanesulfonamide] showed an IC50 of 0.2 nM.

`COc1cc(N2CCC3(CCN(C(=O)c4ccc(N5CCN(Cc6nccs6)CC5)cc4)CC3)C2=O)ccc1-c1cn[nH]c1` [Example 236, 2-[3-methoxy-4-(1H-pyrazol-4-yl)phenyl]-8-(4-{4-[(1,3-thiazol-2-yl)methyl]piperazin-1-yl}benzoyl)-2,8-diazaspiro[4.5]decan-1-one]: the concentration for half-maximal inhibition (IC50) turned out to be 2.7 nM.

In turn, `COc1cc(N2CCC3(CCN(C(=O)c4ccc(N5CCN(Cc6ccc(OCCCN(C)C)cc6)CC5)cc4)CC3)C2=O)ccc1-c1cn[nH]c1` [Example 237, 8-{4-[4-({4-[3-(dimethylamino)propoxy]phenyl}methyl)piperazin-1-yl]benzoyl}-2-[3-methoxy-4-(1H-pyrazol-4-yl)phenyl]-2,8-diazaspiro[4.5]decan-1-one] returned a half-maximal inhibitory concentration (IC50) of 0.1 nM.

The compound `COc1cc(N2CCC3(CCN(C(=O)c4ccc(N5CCN(CCC(C)C)CC5)cc4)CC3)C2=O)ccc1-c1cn[nH]c1` [Example 238, 2-[3-methoxy-4-(1H-pyrazol-4-yl)phenyl]-8-{4-[4-(3-methylbutyl)piperazin-1-yl]benzoyl}-2,8-diazaspiro[4.5]decan-1-one] displayed an IC50 of 1.6 nM.

Compound `COc1cc(N2CCC3(CCN(C(=O)c4ccc(N5CCN(CCc6ccccc6)CC5)cc4)CC3)C2=O)ccc1-c1cn[nH]c1` [Example 239, 2-[3-methoxy-4-(1H-pyrazol-4-yl)phenyl]-8-{4-[4-(2-phenylethyl)piperazin-1-yl]benzoyl}-2,8-diazaspiro[4.5]decan-1-one] had an IC50 of 0.6 nM.

With `COc1cc(N2CCC3(CCN(C(=O)c4ccc(N5CCN(CCC(F)(F)F)CC5)cc4)CC3)C2=O)ccc1-c1cn[nH]c1` [Example 240, 2-[3-methoxy-4-(1H-pyrazol-4-yl)phenyl]-8-{4-[4-(3,3,3-trifluoropropyl)piperazin-1-yl]benzoyl}-2,8-diazaspiro[4.5]decan-1-one], the IC50 is 1 nM.

`COc1cc(N2CCC3(CCN(C(=O)c4ccc(N5CCN(CC(C)(C)C)CC5)cc4)CC3)C2=O)ccc1-c1cn[nH]c1` [Example 241, 8-{4-[4-(2,2-dimethylpropyl)piperazin-1-yl]benzoyl}-2-[3-methoxy-4-(1H-pyrazol-4-yl)phenyl]-2,8-diazaspiro[4.5]decan-1-one] yielded an IC50 of 0.4 nM.

On to `COc1cc(N2CCC3(CCN(C(=O)c4ccc(N5CCN(C(C)CO)CC5)cc4)CC3)C2=O)ccc1-c1cn[nH]c1` (stereo not drawn) [Example 242, 8-{4-[4-(1-hydroxypropan-2-yl)piperazin-1-yl]benzoyl}-2-[3-methoxy-4-(1H-pyrazol-4-yl)phenyl]-2,8-diazaspiro[4.5]decan-1-one], for which the IC50 came to 0.7 nM.

Compound `COc1cc(N2CCC3(CCN(C(=O)c4ccc(N5CCN(Cc6cccnc6)CC5)cc4)CC3)C2=O)ccc1-c1cn[nH]c1` [Example 243, 2-[3-methoxy-4-(1H-pyrazol-4-yl)phenyl]-8-(4-{4-[(pyridin-3-yl)methyl]piperazin-1-yl}benzoyl)-2,8-diazaspiro[4.5]decan-1-one] gave an IC50 of 1 nM.

In the case of `COc1cc(N2CCC3(CCN(C(=O)c4ccc(N5CCN(C6CCN(C)CC6)CC5)cc4)CC3)C2=O)ccc1-c1cn[nH]c1` [Example 244, 2-[3-methoxy-4-(1H-pyrazol-4-yl)phenyl]-8-{4-[4-(1-methylpiperidin-4-yl)piperazin-1-yl]benzoyl}-2,8-diazaspiro[4.5]decan-1-one], 0.9 nM corresponded to half-maximal inhibition (IC50).

On to `COc1cc(N2CCC3(CCN(C(=O)c4ccc(N5CCN(Cc6ccc(N(C)C)cc6)CC5)cc4)CC3)C2=O)ccc1-c1cn[nH]c1` [Example 245, 8-[4-(4-{[4-(dimethylamino)phenyl]methyl}piperazin-1-yl)benzoyl]-2-[3-methoxy-4-(1H-pyrazol-4-yl)phenyl]-2,8-diazaspiro[4.5]decan-1-one], for which the concentration for half-maximal inhibition (IC50) amounted to 0.1 nM.

In turn, `COc1cc(N2CCC3(CCN(C(=O)c4ccc(N5CCN(CC6CCOC6)CC5)cc4)CC3)C2=O)ccc1-c1cn[nH]c1` (stereo not drawn) [Example 246, 2-[3-methoxy-4-(1H-pyrazol-4-yl)phenyl]-8-(4-{4-[(oxolan-3-yl)methyl]piperazin-1-yl}benzoyl)-2,8-diazaspiro[4.5]decan-1-one] yielded a half-inhibitory concentration (IC50) of 0.7 nM.

Compound `O=C1N(c2ccc(-c3cn[nH]c3)cc2)CCC12CCNCC2` [Intermediate 3, 2-(4-(1H-pyrazol-4-yl)phenyl)-2,8-diazaspiro[4.5]decan-1-one, TFA] came in with an IC50 of 1010 nM.
